Target: T1, indoleamine 2, 3-dioxygenase (IDO1) (Homo sapiens, UniProt P14902)
T1 construct: human peripheral blood mononuclear cells (PBMC) (PB003F; host or cells: human PBMC stimulated with IFN-gamma and LPS
Assay: PBMC IDO1 assay (kynurenine detection via mass spectrometry)
Type: cell-based
Conditions: human PBMC stimulated with IFN-γ and LPS, 2 days, kynurenine by mass spectrometry; read-out: IDO1 PBMC pIC50 (converted)
Outline: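 Kynurenine output, read by RapidFire mass spectrometry as a ratio to internal standard, reflected IDO1 activity in human PBMCs induced with 100 ng/ml IFN-γ plus 50 ng/ml LPS and dosed with compound (11 points, 3-fold) over 2 days. Cytotoxicity was tracked by CellTiter-Glo; XC50 values came from Hill-slope fits.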

T1 sequence (P14902 whole entry): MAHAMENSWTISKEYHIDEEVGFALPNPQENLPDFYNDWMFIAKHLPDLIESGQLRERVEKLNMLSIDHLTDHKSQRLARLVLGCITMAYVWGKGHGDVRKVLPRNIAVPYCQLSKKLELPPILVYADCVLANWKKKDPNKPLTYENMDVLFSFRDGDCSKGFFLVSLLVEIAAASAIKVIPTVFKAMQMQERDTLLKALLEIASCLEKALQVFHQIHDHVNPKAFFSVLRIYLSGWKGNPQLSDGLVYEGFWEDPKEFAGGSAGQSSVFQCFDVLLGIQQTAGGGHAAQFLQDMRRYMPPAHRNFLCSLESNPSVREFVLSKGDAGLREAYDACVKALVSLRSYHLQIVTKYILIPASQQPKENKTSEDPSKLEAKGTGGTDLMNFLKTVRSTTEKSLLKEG

Compound | IC50 [nM]
Cc1ccc(C(CC2CCN(C(=O)OC(C)(C)C)CC2)NC(=O)c2ccc(F)cc2)cn1 (centres unmarked) [Example 174, tert-butyl 4-(2-(4-fluorobenzamido)-2-(6-methylpyridin-3-yl)ethyl)piperidine-1-carboxylate] | 126
CC(C)(C)OC(=O)N1CCC(CC(NC(=O)c2ccc3c(c2)OCO3)c2ccccc2)CC1 (centres unmarked) [Example 175, tert-butyl 4-(2-(benzo[d][1,3]dioxole-5-carboxamido)-2-phenylethyl)piperidine-1-carboxylate] | 126
CC(C)(C)OC(=O)N1CCC(CC(NC(=O)c2ccc(F)cc2)c2ccc(=O)n(Cc3ccccc3)c2)CC1 (centres unmarked) [Example 176, tert-butyl 4-(2-(1-benzyl-6-oxo-1,6-dihydropyridin-3-yl)-2-(4-fluorobenzamido)ethyl)piperidine-1-carboxylate] | 126
CCOC(=O)N1CCC(C[C@@H](NC(=O)c2ccc(Cl)s2)C2CC2)CC1 [Example 177, (R)-ethyl 4-(2-(5-chlorothiophene-2-carboxamido)-2-cyclopropylethyl)piperdine-1-carboxylate] | 126
CSc1ccc(C(=O)NC(CC2CCN(C(=O)OC(C)(C)C)CC2)c2ccccc2)cc1 (centres unmarked) [Example 178, tert-butyl 4-(2-(4-(methylthio)benzamido)-2-phenylethyl)piperidine-1-carboxylate] | 126
Cc1csc(C(=O)NC(CC2CCN(C(=O)OC(C)(C)C)CC2)c2ccccc2)c1 (centres unmarked) [Example 179, tert-butyl 4-(2-(4-methylthiophene-2-carboxamido)-2-phenylethyl)piperidine-1-carboxylate] | 126
C=Cc1ccc(C(=O)NC(CC2CCN(C(=O)OC(C)(C)C)CC2)c2ccccc2)s1 (centres unmarked) [Example 180, tert-butyl 4-(2-phenyl-2-(5-vinylthiophene-2-carboxamido)ethyl)piperidine-1-carboxylate] | 126
CC(C)(C)OC(=O)N1CCC(CC(NC(=O)c2cccc3cc[nH]c23)c2ccccc2)CC1 (centres unmarked) [Example 181, tert-butyl 4-(2-(1H-indole-7-carboxamido)-2-phenylethyl)piperidine-1-carboxylate] | 158
CC(C)(C)OC(=O)N1CCC(CC(NC(=O)c2cc3ccccc3s2)c2ccccc2)CC1 (centres unmarked) [Example 182, tert-butyl 4-(2-(benzo[b]thiophene-2-carboxamido)-2-phenylethyl)piperidine-1-carboxylate] | 158
COc1ccc([C@@H](CC2CCN(C(=O)OC(C)(C)C)CC2)NC(=O)c2ccc(F)cc2)cn1 [Example 183, (R)-tert-butyl 4-(2-(4-fluorobenzamido)-2-(6-methoxypyridin-3-yl)ethyl)piperidine-1-carboxylate] | 158
CC(C)NC(=O)N1CCC(CC(NC(=O)c2ccc(Cl)cc2)c2ccccc2)CC1 (centres unmarked) [Example 184, 4-(2-(4-chlorobenzamido)-2-phenylethyl)-N-isopropylpiperidine-1-carboxamide] | 158
O=C(NC(CC1CCN(C(=O)OC2COC2)CC1)c1ccccc1)c1ccc(Cl)cc1 (centres unmarked) [Example 185, oxetan-3-yl 4-(2-(4-chlorobenzamido)-2-phenylethyl)piperidine-1-carboxylate] | 158
O=C(NC(CC1CCN(C(=O)OC2CCOCC2)CC1)c1ccccc1)c1ccc(Cl)cc1 (centres unmarked) [Example 186, tetrahydro-2H-pyran-4-yl 4-(2-(4-chlorobenzamido)-2-phenylethyl)piperidine-1-carboxylate] | 158
CC(C)(C)COC(=O)N1CCC(CC(NC(=O)c2ccc(Cl)cc2)c2ccccc2)CC1 (centres unmarked) [Example 187, neopentyl 4-(2-(4-chlorobenzamido)-2-phenylethyl)piperidine-1-carboxylate] | 158
CC(C)OC(=O)N1CCC(C[C@@H](NC(=O)c2ccc(Cl)s2)C2CC2)CC1 [Example 188, (R)-isopropyl 4-(2-(5-chlorothiophene-2-carboxamido)-2-cyclopropylethyl)piperidine-1-carboxylate] | 158
CC(C)(C)OC(=O)N1CCC(CC(NC(=O)c2ccc(C#N)nc2)c2ccccc2)CC1 (centres unmarked) [Example 189, tert-butyl 4-(2-(6-cyanonicotinamido)-2-phenylethyl)piperidine-1-carboxylate] | 200
CC(C)(C)OC(=O)N1CCC(CC(NC(=O)C2CCCCC2)c2ccccc2)CC1 (centres unmarked) [Example 190, tert-butyl 4-(2-(cyclohexanecarboxamido)-2-phenylethyl)piperidine-1-carboxylate] | 200
Cc1ncc(C(=O)NC(CC2CCN(C(=O)OC(C)(C)C)CC2)c2ccccc2)s1 (centres unmarked) [Example 191, tert-butyl 4-(2-(2-methylthiazole-5-carboxamido)-2-phenylethyl)piperidine-1-carboxylate] | 200
CCCOc1ccc(C(=O)NC(CC2CCN(C(=O)OC(C)(C)C)CC2)c2ccccc2)cc1 (centres unmarked) [Example 192, tert-butyl 4-(2-phenyl-2-(4-propoxybenzamido)ethyl)piperidine-1-carboxylate] | 200

Compound | IC50 [nM]
O=C(NC(CC1CCN(S(=O)(=O)C2CCCC2)CC1)c1ccccc1)c1ccc(Cl)cc1 (centres unmarked) [Example 193, 4-chloro-N-(2-(1-(cyclopentylsulfonyl)piperidin-4-yl)-1-phenylethyl)benzamide] | 200
CC(C)(C)OC(=O)N1CCC(CC(NC(=O)c2ccccc2O)c2ccccc2)CC1 (centres unmarked) [Example 194, tert-butyl 4-(2-(2-hydroxybenzamido)-2-phenylethyl)piperidine-1-carboxylate] | 251
CC(C)(C)OC(=O)N1CCC(CC(NC(=O)c2ccc(O)cc2)c2ccccc2)CC1 (centres unmarked) [Example 195, tert-butyl 4-(2-(4-hydroxybenzamido)-2-phenylethyl)piperidine-1-carboxylate] | 251
CC(C)(C)OC(=O)N1CCC(CC(NC(=O)c2ccc(O)c(F)c2)c2ccccc2)CC1 (centres unmarked) [Example 196, tert-butyl 4-(2-(3-fluoro-4-hydroxybenzamido)-2-phenylethyl)piperidine-1-carboxylate] | 251
O=C(NC(CC1CCN(S(=O)(=O)N2CCCCC2)CC1)c1ccccc1)c1ccc(Cl)cc1 (centres unmarked) [Example 197, 4-chloro-N-(1-phenyl-2-(1-(piperidin-1-ylsulfonyl)piperidin-4-yl)ethyl)benzamide] | 251
CC(C)(C)OC(=O)N1CCC(CC(NC(=O)c2ccc(F)cc2)c2nc(C3CCCC3)no2)CC1 (centres unmarked) [Example 198, tert-butyl 4-(2-(3-cyclopentyl-1,2,4-oxadiazol-5-yl)-2-(4-fluorobenzamido)ethyl)piperidine-1-carboxylate] | 251
CC(C)(C)OC(=O)N1CCC(CC(NC(=O)c2cccc(Cl)c2)c2ccccc2)CC1 (centres unmarked) [Example 199, tert-butyl 4-(2-(3-chlorobenzamido)-2-phenylethyl)piperidine-1-carboxylate] | 316
CC(C)(C)OC(=O)N1CCC(CC(NC(=O)Nc2ccc(F)cc2)c2ccccc2)CC1 (centres unmarked) [Example 200, tert-butyl 4-(2-(3-(4-fluorophenyl)ureido)-2-phenylethyl)piperidine-1-carboxylate] | 316
CC(C)(C)OC(=O)N1CCC(CC(NC(=O)C23CCC(CC2)CC3)c2ccccc2)CC1 (centres unmarked) [Example 201, tert-butyl 4-(2-(bicyclo[2.2.2]octane-1-carboxamido)-2-phenylethyl)piperidine-1-carboxylate] | 316
COCCOc1ccc(C(CC2CCN(C(=O)OC(C)(C)C)CC2)NC(=O)c2ccc(F)cc2)cn1 (centres unmarked) [Example 202, tert-butyl 4-(2-(4-fluorobenzamido)-2-(6-(2-methoxyethoxy)pyridin-3-yl)ethyl)piperidine-1-carboxylate] | 316
CC(C)(C)OC(=O)N1CCC(CC(NC(=O)c2ccc(F)c(Cl)c2)c2ccccc2)CC1 (centres unmarked) [Example 203, tert-butyl 4-(2-(3-chloro-4-fluorobenzamido)-2-phenylethyl)piperidine-1-carboxylate] | 316
Cc1ccc(C(=O)NC(CC2CCN(C(=O)OC(C)(C)C)CC2)c2ccccc2)o1 (centres unmarked) [Example 204, tert-butyl 4-(2-(5-methylfuran-2-carboxamido)-2-phenylethyl)piperidine-1-carboxylate] | 316
CC(C)(C)OC(=O)N1CCC(CC(NC(=O)c2ccc(Cl)c(Cl)c2)c2ccccc2)CC1 (centres unmarked) [Example 205, tert-butyl 4-(2-(3,4-dichlorobenzamido)-2-phenylethyl)piperidine-1-carboxylate] | 316
COC(=O)N1CCC(C[C@@H](NC(=O)c2ccc(Cl)s2)C2CC2)CC1 [Example 206, (R)-methyl 4-(2-(5-chlorothiophene-2-carboxamido)-2-cyclopropylethyl)piperidine-1-carboxylate] | 316
CC(C)(C)OC(=O)N1CCC(CC(NC(=O)c2ccc(F)cc2)c2cccnc2)CC1 (centres unmarked) [Example 207, tert-butyl 4-(2-(4-fluorobenzamido)-2-(pyridin-3-yl)ethyl)piperidine-1-carboxylate] | 398
CC(C)(C)OC(=O)N1CCC(CC(NC(=O)c2ccc(F)cc2)c2ccncc2)CC1 (centres unmarked) [Example 208, tert-butyl 4-(2-(4-fluorobenzamido)-2-(pyridin-4-yl)ethyl)piperidine-1-carboxylate] | 398
CC(C)(C)OC(=O)N1CCC(CC(NC(=O)C2CCCCCC2)c2ccccc2)CC1 (centres unmarked) [Example 209, tert-butyl 4-(2-(cycloheptanecarboxamido)-2-phenylethyl)piperidine-1-carboxylate] | 398
CC(C)(C)CC(=O)NC(CC1CCN(C(=O)OC(C)(C)C)CC1)c1ccccc1 (centres unmarked) [Example 210, tert-butyl 4-(2-(3,3-dimethylbutanamido)-2-phenylethyl)piperidine-1-carboxylate] | 398
CC(C)(C)OC(=O)N1CCC(CC(NC(=O)c2cc(F)ccc2F)c2ccccc2)CC1 (centres unmarked) [Example 211, tert-butyl 4-(2-(2,5-difluorobenzamido)-2-phenylethyl)piperidine-1-carboxylate] | 398
